Measurements: US20170168056A1, “METHODS AND COMPOSITIONS FOR DETECTING AND MODULATING CANCER CELLS” (Massachusetts Institute of Technology, priority 2015, published 2017)

What was measured:
[1] = test system: MDA-MB-231 cells; assay: Time-lapse microscopy of cell division; assay type: cell-based, human; conditions: for increase in time spent in cell division: 10 nM paclitaxel vs vehicle
Method: (§1) In vitro imaging. Glass bottom dishes were coated with Co11agen at 0.1 mg/mL diluted in PBS for 1 hour at 37° C. Cells expressing different MENA isoform were treated with paclitaxel at 1, 10 or 100 nM or vehicle and immediately plated on the glass bottom dishes. 30 minutes later, cells were imaged overnight, with one image acquired every 10 minutes for 16 hours on a Nikon spinning disk with a 20× objective and an Andor/NeoZyla camera. Individual cells were manually tracked using ImageJ and Manual Tracking plug-in. Data were analyzed using the chemotaxis tool developed by IBIDI. For analysis of time spent in cell division, the time between when the mother cell first rounds up, to when both daughter cells have spread out on substrate was measured. The percentage of successful cell divisions was quantified by counting the number of cell divisions that lead to two surviving daughter cells. Data are pooled from at least 50 cells tracked in three independent experiments.
One of the key steps in paclitaxel-induced cell death is cell arrest in the G2/M phases of the cell cycle. […] Time-lapse microscopy was performed to study the cell division phenotypes in more detail, and imaged cells expressing MENA isoforms while adherent on collagen (FIGS. 35D, 35E, 35F).

[2] = test system: ERK, Akt; assay: Western blot for pERK Y204, ERK, pAkt473 and Akt; assay type: cell-based, human
Method: (§2) Western blot. Cells were lysed in 25 mM Tris, 150 mM NaCl, 10% glycerol, 1% NP 40 and […] EDTA with a protease Mini-complete protease inhibitors (Roche) and a phosphatase inhibitor cocktail (PhosSTOP, Roche) at 4° C. for 20 minutes. Protein lysates were separated by SDS-PAGE, transferred to a nitrocellulose membrane and blocked with Odyssey Blocking Buffer (LiCor). Membranes were incubated with primary antibody overnight at 4° C. and Licor secondary antibodies at room temperature for 1 hour. Protein level intensity was measured with Image J.
The MAPK signaling cascade is among the key pathways known to interact with MTs. Both ERK1/2 interact with MTs; MT stabilization by paclitaxel increases ERK phosphorylation and, in turn, ERK pathway activation increases MT dynamics.

[3] = test system: MDA-MB-231 cells; assay: Cell viability assay (Prestoblue) in MDA-MB-231 cells expressing GFP, GFP-Mena or GFP-Mena^INV; conditions: 72 h of treatment with Taxol at 100 nM, 1 μm or 10 μM
Method: Cell viability assays were performed in a 96-well plate. 5,000 cells were plated per well and treated with drug 24 hours later. Cell viability was assayed 72 hours later using the PrestoBlue Cell Viability Reagent (Life Technologies), according to manufacturer's protocol. Fluorescence was measured and normalized to cells exposed to vehicle. The activity area was calculated from doseresponse plots using Matlab. All measurements were repeated in triplicate.

[4] = test system: Mena; assay: Mena expression in cultured cells after taxane treatment (Western blot, FACS of GFP); assay type: cell-based, human
Method: Taxol treatment induces increased Mena protein expression in vitro and in vivo. As high level of Mena or Mena^INV expression correlated with low response to Taxo, we hypothesized that Taxol treatment might affect Mena expression. […]. After 72 h of treatment with the drug, the expression level of Mena was 70% higher than in vehicle-treated cells.
as §2
Paclitaxel treatment selects for high MENA expression in vitro and in vivo. The Examples so far indicate that increased MENA or MENA^INV expression levels are associated with reduced responses to paclitaxel. The effect of paclitaxel treatment on levels of MENA expression in cell populations in vitro and in vivo was examined. First, endogenous MENA expression by Western Blot in 5 breast cancer cell lines that were exposed to 100 nM of paclitaxel or a vehicle control were analyzed (FIG. 33A).

[5] = test system: MDA-MB-231 cells; assay: In vitro imaging of cell velocity on collagen; assay type: cell-based, human; conditions: 231-Control, 231-MENA, 231-MENA^INV; paclitaxel 1, 10 or 100 nM
Method: as §1
MENA and MENA^INV drive increased cell motility and metastasis during tumor progression. Therefore, whether MENA isoform expression impacts cell migration and dissemination after paclitaxel treatment was examined.

[6] = test system: T47D cells; assay: Cell viability of T47D cells expressing ShCtrl or ShMENA after paclitaxel; assay type: cell-based, human; conditions: T47D ShMENA vs ShCtrl, 72 hours
Method: Cell Culture. MDA-MB-231 cells were purchased directly from the ATCC in June 2012, where cell lines are authenticated by short tandem repeat profiling. These cells were not reauthenticated by our lab and were cultured in DMEM with 10% FBS (Hyclone). Cell line generation and FACS were performed as previously described (32). […] SUM159 cells were obtained from Joan Brugge's lab at Harvard Medical School (January 2011) and were not reauthenticated in our lab. SUM159 cells were cultured according to the ATCC protocols. T47D cells were purchased at ATCC, where cell lines are authenticated by short tandem repeat profiling. They were cultured according to the manufacturer's protocol, and not reauthenticated in our lab. […]
MENA and MENA^INV are associated with increased survival during paclitaxel treatment in vitro. […] MENA and MENA^INV were determined to be widely expressed in all main breast cancer subtypes, as measured by mRNA from TCGA samples, as well as at the protein level by immunohistochemistry (FIGS. 28A, 28B, 28C), with slightly higher expression in patients with Her2+ breast cancer. […] Under the conditions we used, MENA11a co-migrates with the 80 kDa MENA, thus the intensity of the measured the 80 kDa MENA, detected with an antibody known to recognize all MENA isoforms, represents the total amount of 80 kDa MENA plus MENA11a in the cell lines that express both isoforms. […]

[7] = 72 hours of paclitaxel treatment, all three cell lines

**Q.** Which results are given for `CC(=O)O[C@H]1C(=O)[C@@]2(C)[C@H]([C@H](OC(=O)c3ccccc3)[C@]3(O)C[C@H](OC(=O)[C@H](O)[C@@H](NC(=O)c4ccccc4)c4ccccc4)C(C)=C1C3(C)C)[C@]1(OC(C)=O)CO[C@@H]1C[C@@H]2O` [paclitaxel]?
**A.** decrease in the number of successful divisions ([1]; 231-Control cells, 10 nM paclitaxel): 40%; increase in time spent in cell division ([1]; 231-Control cells): four-fold; increase in time spent in cell division ([1]; 231-MENA and 231-MENA^INV cells): two-fold; successful cell divisions ([1]; paclitaxel treated 231-MENA and 231-MENA^INV cells): over 90%; total ERK levels ([2]; 72 hours of paclitaxel treatment): unchanged; pERK Y204 levels ([2]; 72 hours of paclitaxel treatment (10 or 100 nM)): 231-MENA and 231-MENA^INV cells had higher levels of pERK Y204 relative to 231-Control cells; pAkt473 levels [2, 7]: decreased pAkt473 levels equally; total Akt levels [2, 7]: without significantly changing; fraction of viable GFP-Mena or GFP-Mena^INV cells higher than fraction of viable GFP (Control) cells [3]: at least 65%; endogenous MENA expression by Western Blot ([4]; 5 breast cancer cell lines, 100 nM paclitaxel, 72 hours, vs vehicle): some cell lines (MDA-MB-231 and MDA-MB-175VII) showed increased MENA expression; FACS analysis of GFP expression levels after taxane treatment ([4]; MDA-MB-231 populations expressing GFP, GFP-MENA or GFP-MENA^INV): selected for high-Mena^INV-GFP expressing cells; expression level of Mena higher than in vehicle-treated cells ([4]; after 72 h of treatment): 70%; cell velocity in vitro [5]: decreased velocity; sensitivity to paclitaxel after reducing all MENA isoform levels [6]: more sensitive to paclitaxel
